System: 5×FAD mouse
Experiment: Morris water maze (MWM) task in 5×FAD mice
Type: in vivo
Method: A Morris water maze (MWM) task was conducted to examine an effect on improving cognitive function depending on the administration of the complex composition of the present invention. […] The above markers remained unchanged throughout the test period. The escape platform was placed 1 cm above the water surface or 0.5 to 1.5 cm below the water surface according to the purpose of the experiment. When placed under the water surface, the water was made opaque with white water-based paint so that the escape platform was not visible to the eye. The Morris water maze was divided into four quadrants, i.e., northeast (NE), northwest (NW), southeast (SE) and southwest (SW), wherein the escape platform was placed in the center of the southwest quadrant, and the mouse started randomly from one of the others.
The escape platform was made visible on Learning DAY 0. Each mouse was trained to recognize that it was possible to escape when they swam toward the escape platform and landed thereon. On DAY 1-4, the escape platform was hidden by being placed under the water, and then the mice learned the position of the escape platform. […] The mice were then immediately transferred to the breeding cage. On DAY 5, the probe test was performed without the escape platform. The probe test was performed by placing the mouse in the farthest part of the quadrant where the escape platform was placed during the training day, and 60 seconds was set as the time limit. The indexes of cognitive function include the escape latency which is the time required for the mouse to find the escape platform and the time spent in the quadrant where the escape platform was placed. It was judged that the shorter the time it takes to escape (FIG. 2A) and the longer the mouse stays in the quadrant where the escape platform was placed (FIG. 2B), the better the memory and learning ability of the mouse.
Then, each group was subjected to oral administration for 4 weeks to perform the experiment.

`COc1cc2c(cc1OC)C(=O)C(CC1CCN(Cc3ccccc3)CC1)C2` (stereo not drawn) [Donepezil, donepezil] was tested. Which “escape latency reduced by, based on the mutant mouse vehicle group” value (2 mg/kg of donepezil alone, reduction stated in text) did it give?
The value was 14.2%.

What about the “Escape latency (Increase or decrease compared to mutated mouse vehicle group)” value (Mutated mouse, Donepezil 2 mg/kg oral, 4 weeks, DAY 4) of the same compound?
Its value is −14.2%.

What about the “time spent in the target quadrant (Increase or decrease compared to mutated mouse vehicle group)” value (Mutated mouse, donepezil 2 mg/kg oral, 4 weeks, probe test DAY 5) of the same compound?
The value was 73.20%.

Source: patent publication US20230398106A1 (NEURORIVE INC, priority 2020, published 2023)
